Measurements published in patent publication US20240368151A1, “NOVEL ERGOLINES AND METHODS OF TREATING MOOD DISORDERS” (priority 2021, published 2024).

Assays:
[1] = test system: Sprague Dawley rats; assay: Forced swim test (FST) in rats; type: in vivo, rat; details: rat FST, 20 mg/kg SC at 23.5 h, 5 h and 1 h before test swim; average of 3 independent experiments
Experimental: Compound 1 induced antidepressant-like effects in the forced swim test (FST) in rats with a 23.5-h pre-treatment time (FIG. 2).
Animals. Male Sprague Dawley rats, aged 9-10 weeks, were used in this experiment. Animals were housed in groups of 2 under controlled temperature (22±3° C.) and relative humidity (30-70%) conditions, with 12-hour light/dark cycles, and with ad libitum food and water. This study was carried out in strict accordance with the requirements of the Committee for the Purpose of Control and Supervision of Experiments on Animals (CPCSEA), India. All efforts were made to minimize suffering.
Drugs and Drug Administration. Compound 1 was synthesized as described above. Desipramine HCl was commercially obtained. The test compound, saline vehicle, and the positive control desipramine were administered subcutaneously (SC), with doses calculated based on the freebase. Normal saline was used as the vehicle. All compounds were administered at a volume of 5 mL/kg. The test compound and vehicle were administered 0.5 h after the start of the training swim (Swim 1) and 23.5 h before the test swim (Swim 2). Desipramine was administered 3 times, at 23.5 h, 5 h, and 1 h before the test swim (Swim 2), each time at a dose of 20 mg/kg. Group size was n=10 per treatment.
Forced Swim Test (FST). […] Rats were handled for about 2 min daily for the 5 days prior to the beginning of the experimental procedure. On the first day of the experiment (i.e., Day 0), post randomization, training swim sessions (Swim 1) were conducted between 12:00 and 18:00 h with all animals by placing rats in individual glass cylinders (46 cm tall×20 cm in diameter) containing 23-25° C. water 30 cm deep for 15 minutes. At the conclusion of Swim 1, animals were dried with paper towels, placed in heated drying cages for 15 minutes, and then returned to their home cages. Animals were then administered the appropriate drug or vehicle treatment(s), as described above. For clarity, a compound administration time of 23.5 h before Swim 2 means 0.5 h after the start of Swim 1 and 0.25 h after the completion of Swim 1 (i.e., immediately after return to the home cage). On Day 1 (i.e., 24 h after start of Swim 1), animals performed the test swim (Swim 2) for a period of 5 min but otherwise under the same conditions as Swim 1. During all swim sessions, the water was changed between each animal.
Behavioral scoring was conducted by observers who were blind to the treatment groups. Animals were continuously observed during Swim 2 and the total time spent engaging in the following behaviors was recorded: immobile, swimming, and climbing. A rat was judged to be immobile when it remained floating in the water without struggling and was making only those movements necessary to keep its head above water. A rat was judged to be swimming when it made active swimming motions, more than necessary to merely maintain its head above water (e.g., moving around in the cylinder). A rat was judged to be climbing when it made active movements with its forepaws in and out of the water, usually directed against the walls.
Statistical Analysis. The data points shown represent the mean±standard error of the mean (SEM). Analysis was performed using GraphPad Prism 6. Comparisons between groups were performed using the one-way analysis of variance (ANOVA), followed by Dunnett's test for comparisons to vehicle.
Additional disclosed compounds were tested in the forced swim test (FST) in rats according to the procedure described in Example 35.

[2] = biological target: T1, 5-HT2A receptor (Homo sapiens (Human), UniProt P28223); type: cell-based; details: Ca^2+ flux, HEK293
Experimental: (§1) Functional Assays at 5-HT2A, 5-HT2B, and 5-HT1A. Agonist activity at 5-HT2A, 5-HT2B, and 5-HT1A receptors was determined using a FLIPR Ca^2+ flux assay at WuXi AppTec (Hong Kong) Limited according to their standard protocols. Briefly, stably transfected cells expressing the receptor of interest (HEK293 for 5-HT2A and 5-HT2B; CHO cells for 5-HT1A) were grown and plated in a 384 well plate and incubated at 37° C. and 5% CO2 overnight. A solution of 250 mM probenecid in 1 mL FLIPR assay buffer was prepared fresh. This was combined with a fluorescent dye (Fluo-4 Direct™) to make a final assay concentration of 2.5 mM. […] The fluorescent dye was then added to the assay plate along with assay buffer to a final volume of 40 μL. The cell plate was incubated for 50 min at 37° C. and 5% CO2 and placed into the FLIPR Tetra along with the compound plate. 10p L of references and compounds were then transferred from the compound plate into the cell plate and the fluorescent signal was read.

[3] = biological target: 5-HT1A receptor (Homo sapiens (Human), UniProt P08908); assay: FLIPR Ca^2+ flux agonist assay at 5-HT1A; type: cell-based; details: CHO cells
Experimental: as §1

[4] = Metabolic stability in human liver microsomes (HLM); type: in vitro ADME; details: both sexes, human, pooled human liver microsomes, pH 7.4, NADPH
From the text: HLM Stability. Pooled HLM from adult male and female donors (Corning 452117) were used.

[5] = biological target: 5-HT1B receptor (Homo sapiens (Human), UniProt P28222); assay: cAMP accumulation agonist assay at 5-HT1B; type: cell-based
Experimental: Functional Assay at 5-HT1B. Agonist activity at 5-HT1B was determined using a cAMP accumulation protocol at WuXi AppTec (Hong Kong) Limited according to their standard protocols. Briefly, stably transfected cells were plated in an OptiPlate-384 well plate, incubated at RT for 60 mins, and cAMP standard solution (800 nM, 10 μL) was added to the blank well. Then, 10 μL detection reagent was added to each well, the plate incubated for 60 mins at RT, and the plate read using EnVision.

[6] = biological target: T1, 5-HT2A receptor; type: cell-based; details: beta-arrestin recruitment
Experimental: The degree of arrestin bias varied substantially across the other compounds tested as well.
Arrestin Functional Assay at 5-HT2A. Recruitment of beta-arrestin was determined using a PathHunter assay at Eurofins DiscoverX (Fremont, CA) according to their standard protocols. PathHunter GPCR beta-arrestin assays take advantage of DiscoverX's proprietary Enzyme Fragment Complementation technology. The GPCR is fused in frame with a small enzyme donor fragment ProLink™ (PK) and co-expressed in cells stably expressing a fusion protein of beta-arrestin and the larger, N-terminal deletion mutant of beta-galactosidase. Activation of the GPCR (5-HT2A receptor in this case) stimulates binding of beta-arrestin to the PK-tagged GPCR and forces complementation of the two enzyme fragments, resulting in the formation of an active beta-galactosidase enzyme. This interaction leads to an increase in enzyme activity that can be measured using chemiluminescent PathHunter Detection Reagents. Briefly, PathHunter cells expressing 5-HT2A receptors were seeded in a volume of 20 μL into 384-well plates and incubated at 37° C. for the appropriate time prior to testing. […] Plates were then imaged on a microplate reader and the agonist activity was calculated using the following formula: % Activity=100%×(mean RLU of test sample−mean RLU of vehicle control)/(mean MAX control ligand−mean RLU of vehicle control), where RLU=relative light units.

[7] = biological target: Alpha1A receptor (Homo sapiens (Human), UniProt P35348); assay: FLIPR Ca^2+ flux agonist assay at Alpha1A; type: cell-based
Experimental: Disclosed compounds were tested for agonist activity at several adrenergic (Alpha1A and Alpha2A) and dopamine (D1 and D2) receptor subtypes using Ca^2+ flux functional assays, with the results summarized in Table 6. Selectivity for the 5-HT2A receptor over these other targets varied depending on the specific target and compound.
(§2) Functional Assays at Adrenergic and Dopamine Receptors. Agonist activity at Alpha1A, Alpha2A, D1, and D2 receptors was determined using a FLIPR Ca^2+ flux assay at WuXi AppTec (Hong Kong) Limited according to their standard protocols. Briefly, stably transfected cells expressing the receptor of interest were grown and plated in a 384 well plate and incubated at 37° C. and 5% CO2 overnight. A solution of 250 mM probenecid in 1 mL FLIPR assay buffer was prepared fresh. This was combined with a fluorescent dye (Fluo-4 Direct™) to make a final assay concentration of 2.5 mM. Compounds were diluted 1:3.16 for 10 points and 750 nL was added to a 384 well compound plate using ECHO along with 30 μL assay buffer. The fluorescent dye was then added to the assay plate along with assay buffer to a final volume of 40 μL. The cell plate was incubated for 50 min at 37° C. and 5% CO2 and placed into the FLIPR Tetra along with the compound plate. 10 μL of references and compounds were then transferred from the compound plate into the cell plate and the fluorescent signal was read.

[8] = biological target: 5-HT2B receptor (Homo sapiens (Human), UniProt P41595); assay: FLIPR Ca^2+ flux agonist assay at 5-HT2B; type: cell-based; details: HEK293
Experimental: as §1

[9] = biological target: D2 receptor (Homo sapiens (Human), UniProt P14416); assay: FLIPR Ca^2+ flux agonist assay at D2; type: cell-based
Experimental: as §2, with “Compounds were diluted 1:3.16 for 10 points and 750 nL was added to a 384 well compound plate using ECHO along with 30 μL assay buffer.” left out

[10] = biological target: D1 receptor (Homo sapiens (Human), UniProt P21728); assay: FLIPR Ca^2+ flux agonist assay at D1; type: cell-based
Experimental: as §2, with “Compounds were diluted 1:3.16 for 10 points and 750 nL was added to a 384 well compound plate using ECHO along with 30 μL assay buffer.” left out

[11] = Metabolic stability in rat liver microsomes (RLM); type: in vitro ADME; details: both sexes, rat, pooled rat liver microsomes, pH 7.4, NADPH
[12] = Metabolic stability in mouse liver microsomes (MLM); type: in vitro ADME; details: mouse, pooled mouse liver microsomes, pH 7.4, MLM (CD-1), NADPH
From the text: MLM Stability Pooled MLM from CD-1 mice (BIOIVT M00501) were used.

Sequence of Alpha1A receptor (P35348 whole entry, looked up): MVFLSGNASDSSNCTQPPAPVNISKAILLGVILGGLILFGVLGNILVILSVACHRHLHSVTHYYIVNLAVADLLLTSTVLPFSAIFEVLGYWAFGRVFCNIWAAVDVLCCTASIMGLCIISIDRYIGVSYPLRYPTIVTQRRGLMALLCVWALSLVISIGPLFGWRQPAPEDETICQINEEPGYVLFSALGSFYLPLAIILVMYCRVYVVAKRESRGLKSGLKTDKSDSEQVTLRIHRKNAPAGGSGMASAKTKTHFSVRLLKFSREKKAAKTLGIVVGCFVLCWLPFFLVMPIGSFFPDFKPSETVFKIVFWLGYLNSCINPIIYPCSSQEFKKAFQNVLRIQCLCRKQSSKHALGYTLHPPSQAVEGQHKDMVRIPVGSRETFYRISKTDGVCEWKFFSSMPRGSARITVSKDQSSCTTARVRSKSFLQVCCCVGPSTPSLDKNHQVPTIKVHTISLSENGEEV
Sequence of 5-HT1B receptor (P28222 whole entry, looked up): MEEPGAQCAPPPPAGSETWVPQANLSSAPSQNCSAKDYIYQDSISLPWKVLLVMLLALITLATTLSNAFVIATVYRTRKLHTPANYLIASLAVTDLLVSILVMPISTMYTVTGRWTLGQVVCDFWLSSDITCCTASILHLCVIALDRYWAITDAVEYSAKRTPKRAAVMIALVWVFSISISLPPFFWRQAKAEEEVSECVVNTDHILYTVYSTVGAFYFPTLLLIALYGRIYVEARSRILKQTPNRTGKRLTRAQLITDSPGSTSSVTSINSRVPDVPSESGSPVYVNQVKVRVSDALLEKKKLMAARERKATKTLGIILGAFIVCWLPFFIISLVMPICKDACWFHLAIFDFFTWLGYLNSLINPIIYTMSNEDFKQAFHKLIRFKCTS
Sequence of 5-HT2B receptor (P41595 whole entry, looked up): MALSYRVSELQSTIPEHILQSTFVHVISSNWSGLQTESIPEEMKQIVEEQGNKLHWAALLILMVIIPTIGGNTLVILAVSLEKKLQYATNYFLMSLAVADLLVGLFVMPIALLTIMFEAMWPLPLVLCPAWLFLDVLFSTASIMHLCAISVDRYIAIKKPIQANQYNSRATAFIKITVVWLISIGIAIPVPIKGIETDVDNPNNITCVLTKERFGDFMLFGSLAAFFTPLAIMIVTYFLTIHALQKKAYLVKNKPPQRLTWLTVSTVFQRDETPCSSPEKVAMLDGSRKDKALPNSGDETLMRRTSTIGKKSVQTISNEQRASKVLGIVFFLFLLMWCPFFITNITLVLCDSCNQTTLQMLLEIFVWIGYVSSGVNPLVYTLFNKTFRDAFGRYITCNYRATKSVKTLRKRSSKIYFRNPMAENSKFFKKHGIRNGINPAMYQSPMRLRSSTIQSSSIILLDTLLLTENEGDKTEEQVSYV
Sequence of D2 receptor (P14416 whole entry, looked up): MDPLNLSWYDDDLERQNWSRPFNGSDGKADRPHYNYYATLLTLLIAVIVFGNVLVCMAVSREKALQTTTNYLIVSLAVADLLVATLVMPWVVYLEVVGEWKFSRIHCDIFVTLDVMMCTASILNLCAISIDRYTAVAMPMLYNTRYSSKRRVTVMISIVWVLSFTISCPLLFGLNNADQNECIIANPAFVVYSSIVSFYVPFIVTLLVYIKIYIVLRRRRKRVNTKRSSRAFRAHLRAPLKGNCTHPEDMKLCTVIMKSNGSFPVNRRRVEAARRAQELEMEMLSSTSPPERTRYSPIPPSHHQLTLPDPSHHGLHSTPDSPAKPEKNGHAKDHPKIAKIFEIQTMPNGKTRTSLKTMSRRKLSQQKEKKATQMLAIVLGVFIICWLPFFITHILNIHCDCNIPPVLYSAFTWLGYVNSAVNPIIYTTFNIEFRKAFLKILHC
Sequence of D1 receptor (P21728 whole entry, looked up): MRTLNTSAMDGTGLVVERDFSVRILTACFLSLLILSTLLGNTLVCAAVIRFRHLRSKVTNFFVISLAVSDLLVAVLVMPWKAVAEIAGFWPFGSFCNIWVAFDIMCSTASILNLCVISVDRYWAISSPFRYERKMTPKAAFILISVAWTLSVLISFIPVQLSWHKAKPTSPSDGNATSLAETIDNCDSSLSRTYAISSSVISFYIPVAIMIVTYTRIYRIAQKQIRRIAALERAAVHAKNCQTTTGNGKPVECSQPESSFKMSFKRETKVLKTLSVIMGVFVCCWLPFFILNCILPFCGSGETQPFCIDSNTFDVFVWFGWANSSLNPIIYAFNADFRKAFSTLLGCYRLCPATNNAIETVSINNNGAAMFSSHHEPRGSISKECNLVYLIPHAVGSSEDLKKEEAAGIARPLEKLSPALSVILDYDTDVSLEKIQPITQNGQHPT

Structure (SMILES)	Time Immobile [1] [s]	5-HT2A % Act @ Max Dose [2] [%]	5-HT1A % Act @ Max Dose [3] [%]	half-life at 1 μM [4] [min]	5-HT1B % Act @ Max Dose [5] [%]	5-HT2A Arrestin % Act @ Max Dose [6] [%]	agonist type in the 5-HT2A arrestin recruitment assay, in words [6]	Alpha 1A % Act @ Max Dose [7] [%]	5-HT2B % Act @ Max Dose [8] [%]	D2 % Act @ Max Dose [9] [%]	D1 % Act @ Max Dose [10] [%]	half-life at 1 μM [11] [min]	half-life at 1 μM [12] [min]
CNCCCN1c2ccccc2CCc2ccccc21 [Desipramine, reference compound]	60.93												
CCN(CC)C(=O)[C@@H]1C=C2c3cccc4[nH]cc(c34)C[C@H]2N(C)C1 [LSD, lysergic acid diethylamide, reference compound]		107.7	91.39	71.6	98.03	52.646	partial agonists	60.3	19.26	78.33	94.9	60.2	31.3
CCN(CC)C(=O)[C@@H]1C=C2c3cccc4[nH]cc(c34)C[C@H]2N(CC2CC2)C1 [Compound 13, (6aR,9R)-N,N-diethyl-7-(Cyclopropylmethyl)-4,6,6a,7,8,9-hexahydroindolo[4,3-fg]quinoline-9-carboxamide]		92.60	83.08	21.1	90.43			80.79	91.75			27.7	3.7
CCN(CC)C(=O)[C@@H]1C=C2c3cccc4[nH]cc(c34)C[C@H]2N(CCC(F)(F)F)C1 [Compound 12, (6aR,9R)-N,N-diethyl-7-(3,3,3-trifluoropropyl)-4,6,6a,7,8,9-hexahydroindolo[4,3-fg]quinoline-9-carboxamide]		78.69	71.42	13.5	95.51			2.08	29.55			5.9	2.1
